In the CheMixHub drug solubility set:

Assay: xn = mol fraction of the nth substance listed, in the solute-free solvent

CC(=O)OC(OC(C)=O)c1ccc([N+](=O)[O-])o1 + C1CCOC1 + CC#N
solubility (g/100 g solution)
Conditions | 278.15 K | 283.15 K | 288.15 K | 293.15 K | 298.15 K | 303.15 K | 308.15 K | 313.15 K | 318.15 K | 323.15 K
x2 = 0.1463 | 5.45 | 7.32 | 9.5 | 12.1 | 15 | 18.6 | 22.7 | 27.8 | 33.5 | 40
x2 = 0.2961 | 9.28 | 11.7 | 14.9 | 18.5 | 23.1 | 28.4 | 34.3 | 40.7 | 47.5 | 54.4
x2 = 0.4354 | 12.3 | 15.2 | 19.6 | 24.6 | 29.7 | 35.9 | 42.6 | 49.4 | 56 | 62.3
x2 = 0.5816 | 14.6 | 17.7 | 23 | 28.6 | 34.3 | 40.8 | 47.9 | 54.4 | 61 | 67.2
x2 = 0.7445 | 17.2 | 21.4 | 26.5 | 32.5 | 38.5 | 45.1 | 51.9 | 58.3 | 64.6 | 70.5
x2 = 0.8896 | 23.6 | 28 | 33.2 | 39.3 | 45.3 | 51.9 | 57.8 | 63.6 | 68.8 | 73.9

O=C(O)c1ccc(-n2nc(-c3ccccc3O)nc2-c2ccccc2O)cc1 + CC#N + O
298.15 K
Conditions | solubility (g/100 g solution)
x2 = 0.04651 | 0.126
x2 = 0.0989 | 0.161
x2 = 0.1583 | 0.316
x2 = 0.2264 | 0.736
x2 = 0.3051 | 1.86
x2 = 0.397 | 3.21
x2 = 0.506 | 4.64
x2 = 0.6372 | 5.9
x2 = 0.798 | 5.08

CC(C)Oc1ccc2c(=O)c(-c3ccccc3)coc2c1 + CC(=O)N(C)C + CCO
solubility (g/100 g solution)
Conditions | 278.15 K | 283.15 K | 288.15 K | 293.15 K | 298.15 K | 303.15 K | 308.15 K | 313.15 K | 318.15 K | 323.15 K
x2 = 0.1146 | 1.53 | 1.91 | 2.45 | 3.3 | 4.13 | 5.36 | 7.01 | 8.71 | 11 | 14
x2 = 0.2681 | 2.21 | 2.72 | 3.46 | 4.21 | 5.26 | 6.49 | 8.02 | 9.92 | 12.2 | 15.1
x2 = 0.4379 | 4.02 | 4.85 | 5.82 | 7.08 | 8.67 | 10.2 | 12.4 | 14.5 | 17.7 | 21.8
x2 = 0.6771 | 6.41 | 8.04 | 9.6 | 11.1 | 13 | 15.4 | 18 | 21.2 | 25 | 28.9

Cc1cc(Cl)cc(C(=O)O)c1N + CC(C)=O + CC#N
solubility (g/100 g solution)
Conditions | 278.15 K | 283.15 K | 288.15 K | 293.15 K | 298.15 K | 303.15 K | 308.15 K | 313.15 K | 318.15 K | 323.15 K
x2 = 0.1114 | 1.03 | 1.1 | 1.25 | 1.42 | 1.6 | 1.82 | 2.12 | 2.5 | 2.98 | 3.61
x2 = 0.2335 | 1.51 | 1.63 | 1.87 | 2.13 | 2.41 | 2.74 | 3.2 | 3.76 | 4.46 | 5.3
x2 = 0.3677 | 1.98 | 2.16 | 2.48 | 2.84 | 3.21 | 3.65 | 4.26 | 5 | 5.89 | 6.95
x2 = 0.516 | 2.46 | 2.68 | 3.09 | 3.54 | 4 | 4.55 | 5.3 | 6.22 | 7.3 | 8.55
x2 = 0.6807 | 2.92 | 3.19 | 3.69 | 4.24 | 4.78 | 5.44 | 6.32 | 7.42 | 8.69 | 10.1
x2 = 0.8648 | 3.39 | 3.71 | 4.29 | 4.92 | 5.55 | 6.31 | 7.34 | 8.61 | 10.1 | 11.7

CCc1cccc2c3c([nH]c12)C(CC)(CC(=O)O)OCC3 (stereo unspecified) + CC(C)=O + CCCCCC
solubility (g/100 g solution)
Conditions | 278.15 K | 283.15 K | 288.15 K | 293.15 K | 298.15 K | 303.15 K | 308.15 K | 313.15 K | 318.15 K | 323.15 K
x2 = 0.2707 | 4.23 | 4.59 | 4.94 | 5.31 | 5.68 | 6.06 | 6.49 | 6.82 | 7.19 | 7.56
x2 = 0.4972 | 13.3 | 14.4 | 15.4 | 16.4 | 17.8 | 19 | 19.9 | 20.9 | 22 | 23
x2 = 0.69 | 22.1 | 23.7 | 25.3 | 26.8 | 28.7 | 31 | 32.8 | 34.7 | 36.7 | 38.4
x2 = 0.8558 | 20.2 | 21.8 | 23.3 | 24.9 | 26.6 | 28.4 | 29.9 | 31.4 | 33.3 | 34.8

Cc1cc(Cl)cc(C(=O)O)c1N + CC(C)=O + CCCCCC
solubility (g/100 g solution)
Conditions | 278.15 K | 283.15 K | 288.15 K | 293.15 K | 298.15 K | 303.15 K | 308.15 K | 313.15 K | 318.15 K | 323.15 K
x2 = 0.2386 | 0.677 | 0.753 | 0.884 | 1.03 | 1.18 | 1.35 | 1.58 | 1.88 | 2.21 | 2.59
x2 = 0.4322 | 1.29 | 1.42 | 1.66 | 1.92 | 2.18 | 2.5 | 2.92 | 3.45 | 4.05 | 4.74
x2 = 0.5923 | 1.87 | 2.05 | 2.39 | 2.75 | 3.12 | 3.56 | 4.16 | 4.9 | 5.75 | 6.71
x2 = 0.7271 | 2.4 | 2.64 | 3.07 | 3.53 | 3.99 | 4.55 | 5.31 | 6.25 | 7.32 | 8.52
x2 = 0.842 | 2.91 | 3.2 | 3.71 | 4.26 | 4.81 | 5.48 | 6.38 | 7.5 | 8.77 | 10.2
x2 = 0.9411 | 3.39 | 3.72 | 4.31 | 4.95 | 5.58 | 6.35 | 7.38 | 8.66 | 10.1 | 11.7

N#CC(c1ccc(Cl)cc1)c1c(Cl)cc(-n2ncc(=O)[nH]c2=O)cc1Cl (stereo unspecified) + CC(C)=O + CCO
solubility (g/100 g solution)
Conditions | 283.15 K | 288.15 K | 293.15 K | 298.15 K | 303.15 K | 308.15 K | 313.15 K | 318.15 K | 323.15 K
x2 = 0.1655 | 2.81 | 3.32 | 3.87 | 4.51 | 5.25 | 6.03 | 6.91 | 7.89 | 8.92
x2 = 0.3459 | 4.12 | 4.81 | 5.56 | 6.42 | 7.41 | 8.46 | 9.6 | 10.9 | 12.2
x2 = 0.5434 | 5.39 | 6.26 | 7.2 | 8.24 | 9.47 | 10.8 | 12.2 | 13.7 | 15.2
x2 = 0.7604 | 6.63 | 7.67 | 8.77 | 10 | 11.4 | 13 | 14.6 | 16.3 | 18.1

Cc1cc(Cl)cc(C(=O)O)c1N + CC(C)=O + CO
solubility (g/100 g solution)
Conditions | 278.15 K | 283.15 K | 288.15 K | 293.15 K | 298.15 K | 303.15 K | 308.15 K | 313.15 K | 318.15 K | 323.15 K
x2 = 0.0885 | 1.19 | 1.38 | 1.68 | 1.99 | 2.4 | 2.86 | 3.39 | 4.09 | 4.87 | 5.8
x2 = 0.1908 | 1.63 | 1.86 | 2.21 | 2.59 | 3.05 | 3.58 | 4.22 | 5.04 | 5.96 | 7.04
x2 = 0.3105 | 2.08 | 2.33 | 2.75 | 3.19 | 3.7 | 4.29 | 5.04 | 5.98 | 7.04 | 8.27
x2 = 0.4522 | 2.52 | 2.8 | 3.28 | 3.79 | 4.35 | 5.01 | 5.85 | 6.92 | 8.12 | 9.48
x2 = 0.6228 | 2.96 | 3.27 | 3.81 | 4.39 | 4.99 | 5.71 | 6.66 | 7.84 | 9.18 | 10.7
x2 = 0.832 | 3.4 | 3.74 | 4.34 | 4.98 | 5.64 | 6.42 | 7.47 | 8.77 | 10.2 | 11.9

O=CC(O)C(O)C(O)CO (stereo unspecified) + CC(C)O + CCCCCC
solubility (g/100 g solution)
Conditions | x2 = 0.1 | x2 = 0.2 | x2 = 0.3 | x2 = 0.4 | x2 = 0.5 | x2 = 0.6 | x2 = 0.7 | x2 = 0.8 | x2 = 0.9
283.15 K | 0.0751 | 0.111 | 0.142 | 0.164 | 0.188 | 0.271 | 0.405 | 0.615 | 0.82
293.15 K | 0.0952 | 0.126 | 0.198 | 0.238 | 0.307 | 0.453 | 0.646 | 0.819 | 1.12
303.15 K | 0.112 | 0.13 | 0.233 | 0.362 | 0.471 | 0.665 | 1 | 1.4 | 2.1
313.15 K | 0.129 | 0.16 | 0.277 | 0.518 | 0.76 | 1.08 | 1.61 | 2.29 | 3.38
323.15 K | 0.14 | 0.247 | 0.388 | 0.792 | 1.16 | 1.83 | 2.77 | 4 | 6.03

CC1CCC2(C(=O)O)CCC3(C)C(=CCC4C5(C)CCC(O)C(C)(C)C5CCC43C)C2C1C (stereo unspecified) + CC(C)O + O
solubility (g/100 g solution)
Conditions | 293.15 K | 298.15 K | 303.15 K | 308.15 K | 313.15 K | 318.15 K | 323.15 K | 328.15 K | 333.15 K
x2 = 0.0908 | 0.00219 | 0.00363 | 0.00394 | 0.00575 | 0.00586 | 0.00613 | 0.00653 | 0.00668 | 0.0109
x2 = 0.1389 | 0.00363 | 0.00474 | 0.00741 | 0.00959 | 0.0147 | 0.0158 | 0.0187 | 0.036 | 0.0388
x2 = 0.1969 | 0.0293 | 0.0352 | 0.0473 | 0.0614 | 0.0752 | 0.0821 | 0.0985 | 0.111 | 0.13
x2 = 0.2681 | 0.0944 | 0.118 | 0.13 | 0.142 | 0.158 | 0.22 | 0.239 | 0.282 | 0.33
x2 = 0.3575 | 0.146 | 0.195 | 0.236 | 0.284 | 0.359 | 0.387 | 0.493 | 0.514 | 0.656
x2 = 0.4734 | 0.171 | 0.276 | 0.328 | 0.378 | 0.529 | 0.672 | 1.01 | 1.16 | 1.21

O=C(O)c1ccc(-n2nc(-c3ccccc3O)nc2-c2ccccc2O)cc1 + CC(O)CO + CC#N
298.15 K
Conditions | solubility (g/100 g solution)
x2 = 0.05655 | 2.43
x2 = 0.1188 | 4.43
x2 = 0.1878 | 6.62
x2 = 0.2645 | 8.48
x2 = 0.3504 | 9.81
x2 = 0.4473 | 10.7
x2 = 0.5573 | 11.3
x2 = 0.6833 | 11.4
x2 = 0.8292 | 11

O=C(O)c1ccc(-n2nc(-c3ccccc3O)nc2-c2ccccc2O)cc1 + CC(O)CO + CCO
298.15 K
Conditions | solubility (g/100 g solution)
x2 = 0.06303 | 11.6
x2 = 0.1315 | 12.2
x2 = 0.206 | 12.8
x2 = 0.2875 | 13.4
x2 = 0.3771 | 13.7
x2 = 0.4759 | 13.4
x2 = 0.5855 | 12.4
x2 = 0.7077 | 11.2
x2 = 0.8449 | 10.1

O=C(O)c1ccc(-n2nc(-c3ccccc3O)nc2-c2ccccc2O)cc1 + CC(O)CO + CO
298.15 K
Conditions | solubility (g/100 g solution)
x2 = 0.0447 | 13.5
x2 = 0.09525 | 14.2
x2 = 0.1529 | 14.4
x2 = 0.2192 | 14.6
x2 = 0.2963 | 14.2
x2 = 0.3871 | 13.7
x2 = 0.4956 | 12.9
x2 = 0.6275 | 11.8
x2 = 0.7912 | 10.4
